This passage reports IC50 results from US20250236619A1, “FUSED BICYCLIC COMPOUND CONTAINING PYRROLINONE” (CHIA TAI TIANQING PHARMACEUTICAL GROUP CO., LTD., priority 2022, published 2025).

Where two headings read alike, the source gives them in different places. Some results are limits rather than exact numbers.

By IC50 is commonly meant the midpoint of a concentration-inhibition curve.

In one experiment the target is HPK1 kinase (Homo sapiens (Human), UniProt Q92918). Nature of the experiment: Assay for in vitro inhibitory activity against HPK1 kinase. To be noted: HPK1 1 ng/μL, ATP 1 mM, STK Substrate 1-biotin 500 nM. The class given is biochemical. On the procedure:
Experimental Example 1: Assay for In Vitro Inhibitory Activity Against HPK1 Kinase A kinase buffer (Enzymatic buffer 5×) was diluted to 1×, and 10 mM MgCl2, 1 mM DTT, and 0.005% Tween 20 were added. A 100 ng/μL HPK1 (Life technology) stock solution was diluted with the kinase buffer to obtain a 1.67×, 1.67 ng/μL working solution (final concentration: 1 ng/μL), and the working solution was seeded in a 384-well plate at 6 μL/well. Different compounds dissolved in DMSO were added to the wells using a nanoliter pipettor to obtain final concentrations of the compounds of 1000 nM to 0.244 nM (4-fold serial dilution, 7 concentrations in total), and blank control wells (without enzyme) and negative control wells (with enzyme, plus vehicle DMSO) were set; the wells were set in duplicate. After the enzyme and the compounds were incubated at room temperature for 1 h, a 5×, 5 mM ATP dilution (final concentration: 1 mM) in the kinase buffer was mixed with a 5×, […] substrate (Cisbio, STK Substrate 1-biotin; final concentration: 500 nM) in equal volume, and the mixture was added to the plate at 4 µL/well. The plate was sealed with a film and then incubated at room temperature for 2 h. An assay antibody solution was prepared by mixing the antibody STK Antibody-cryptate (Cisbio, 5 μL/test) and a 4×, 500 nM Streptavidin-XL665 (Cisbio; final concentration: 125 nM) in equal volume and added to the plate at 10 μL/well. The plate was incubated at room temperature for 1 h. The signal values (excitation: […]) were measured using a PE Envision multimode microplate reader, and IC50 was calculated by four-parameter fitting.

Experiment [1] has as its system p-SLP76 phosphorylation of Jurkat cells. Nature of the experiment: Assay for inhibitory activity against p-SLP76 phosphorylation of Jurkat cells. Format: cell-based. To be noted: stimulator CD3CD28, 30 min, read-out: IC50 (nM) for inhibition of p-SLP76 phosphorylation of Jurkat cells. Here is the method:
2.1 Assay for Inhibitory Activity Against p-SLP76 Phosphorylation of Jurkat Cells
Jurkat cells in a good growth state were added to a centrifuge tube, centrifuged, and resuspended. The cell density was adjusted to 6.25×10^6 cells/mL, and the cells were seeded in a 384-well small-volume white plate at […]. Different compounds dissolved in DMSO were added to the wells using a nanoliter pipettor to obtain final concentrations of the compounds of 2500 nM to 10.29 nM, and a control was set; the wells were set in duplicate. After 1 h of cell culture, the stimulator CD3CD28 (manufacturer: stemcell, 4 μL) was added and the cells were incubated at 37° C. for 30 min. 3 μL of lysis buffer (manufacturer: BioAuxilium) was added to each well, and the plate was shaken at room temperature for 30 min. After the lysate was well mixed, 5 μL of pre-mixed antibody (manufacturer: BioAuxilium) in assay buffer was added and the plate was incubated overnight at room temperature. The signal values were measured on a PerkinElmer Envision multimode microplate reader (excitation: 320 nm, emission: 615 nm/665 nm), and IC50 was calculated by four-parameter filling.

Chain of HPK1 kinase (Q92918 whole entry): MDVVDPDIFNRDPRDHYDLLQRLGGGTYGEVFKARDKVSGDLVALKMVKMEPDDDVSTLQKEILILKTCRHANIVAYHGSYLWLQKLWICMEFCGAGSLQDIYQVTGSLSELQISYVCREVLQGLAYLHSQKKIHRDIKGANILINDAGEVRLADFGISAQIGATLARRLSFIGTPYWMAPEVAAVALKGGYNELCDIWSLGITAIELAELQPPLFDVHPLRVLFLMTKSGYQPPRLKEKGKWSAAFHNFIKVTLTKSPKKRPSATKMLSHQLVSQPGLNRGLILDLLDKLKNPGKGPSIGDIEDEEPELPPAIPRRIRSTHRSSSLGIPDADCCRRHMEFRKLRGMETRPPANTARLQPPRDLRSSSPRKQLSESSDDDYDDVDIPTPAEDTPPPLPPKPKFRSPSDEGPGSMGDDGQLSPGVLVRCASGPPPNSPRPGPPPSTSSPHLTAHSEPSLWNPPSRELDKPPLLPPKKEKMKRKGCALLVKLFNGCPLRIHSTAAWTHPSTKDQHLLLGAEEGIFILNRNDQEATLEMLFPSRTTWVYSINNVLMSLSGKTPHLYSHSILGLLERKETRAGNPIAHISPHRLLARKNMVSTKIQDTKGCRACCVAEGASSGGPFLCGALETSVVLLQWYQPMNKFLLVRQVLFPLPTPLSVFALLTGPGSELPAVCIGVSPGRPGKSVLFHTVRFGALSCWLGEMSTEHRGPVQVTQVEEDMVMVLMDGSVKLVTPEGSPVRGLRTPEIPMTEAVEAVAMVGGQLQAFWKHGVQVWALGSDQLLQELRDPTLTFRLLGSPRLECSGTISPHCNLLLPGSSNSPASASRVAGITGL

On to `CN(C)Cc1nc(Nc2ccc(-c3cnn4ccc5occc5c34)c3c2C(=O)NC3)ccc1C1CCN(C)C(=O)C1` (stereo not shown) [Compound I-60], for which the IC50 was 2.8 nM on HPK1 kinase and less than 50 nM in experiment [1] (Homo sapiens, 0.5 h).
Regarding `CN(C)Cc1nc(Nc2ccc(-c3cnc4cnc5occc5n34)c3c2C(=O)NC3)ccc1[C@H]1CCN(C)C(=O)C1` [Compound I-69], the values for the IC50 (against HPK1 kinase; in experiment [1]) were 3.7 nM and less than 50 nM, respectively.
For `CN(C)Cc1nc(Nc2ccc(-c3cnc4ccc5occc5n34)c3c2C(=O)NC3)ccc1[C@H]1CCN(C)C(=O)C1` [Compound I-72] the same measures were 3.7 nM and less than 50 nM.
For `CN(C)Cc1nc(Nc2ccc(-c3cnc4ccc5occc5n34)c3c2C(=O)NC3)ccc1[C@@H]1CCN(C)C(=O)C1` [Compound I-73] the same measures were 2.9 nM and less than 50 nM.
Regarding `CN(C)Cc1nc(Nc2ccc(-c3cnn4c3CC3(CC3)C4)c3c2C(=O)NC3)ccc1N1CCN(C)C(=O)C1` [Compound I-75], the values for the IC50 (at HPK1 kinase; in experiment [1]) were 3.4 nM and 50 to 100 nM, respectively.
On to `CN(C)Cc1nc(Nc2ccc(-c3cnc4ccc5occc5n34)c3c2C(=O)NC3)ccc1-c1ccn(C)c(=O)c1` [Compound I-77], for which the results for the IC50 (against HPK1 kinase; in experiment [1]) were 2.9 nM and less than 50 nM, respectively.
For `CN(C)Cc1nc(Nc2ccc(-c3cnn4c3CC3(CC3)C4)c3c2C(=O)NC3)ccc1C1CCN(C)CC1` [Compound I-78] the same measures were 2.3 nM and 50 to 100 nM.
With `CN(C)Cc1nc(Nc2ccc(-c3cnn4c3CC3(CC4)CC3)c3c2C(=O)NC3)ccc1[C@@H]1CCN(C)C(=O)C1` [I-71], the IC50 against HPK1 kinase was 3.6 nM; in experiment [1], less than 50 nM.
